In patent publication US10428080B2, “TBK/IKK inhibitor compounds and uses thereof” (Merck Patent GmbH, priority 2015, dated 2019) one finds IC50 data, which are given here for nine molecules.

One experiment deals with T1, TBK1 (Homo sapiens, UniProt Q9UHD2).
T1 sequence (Q9UHD2 1-729): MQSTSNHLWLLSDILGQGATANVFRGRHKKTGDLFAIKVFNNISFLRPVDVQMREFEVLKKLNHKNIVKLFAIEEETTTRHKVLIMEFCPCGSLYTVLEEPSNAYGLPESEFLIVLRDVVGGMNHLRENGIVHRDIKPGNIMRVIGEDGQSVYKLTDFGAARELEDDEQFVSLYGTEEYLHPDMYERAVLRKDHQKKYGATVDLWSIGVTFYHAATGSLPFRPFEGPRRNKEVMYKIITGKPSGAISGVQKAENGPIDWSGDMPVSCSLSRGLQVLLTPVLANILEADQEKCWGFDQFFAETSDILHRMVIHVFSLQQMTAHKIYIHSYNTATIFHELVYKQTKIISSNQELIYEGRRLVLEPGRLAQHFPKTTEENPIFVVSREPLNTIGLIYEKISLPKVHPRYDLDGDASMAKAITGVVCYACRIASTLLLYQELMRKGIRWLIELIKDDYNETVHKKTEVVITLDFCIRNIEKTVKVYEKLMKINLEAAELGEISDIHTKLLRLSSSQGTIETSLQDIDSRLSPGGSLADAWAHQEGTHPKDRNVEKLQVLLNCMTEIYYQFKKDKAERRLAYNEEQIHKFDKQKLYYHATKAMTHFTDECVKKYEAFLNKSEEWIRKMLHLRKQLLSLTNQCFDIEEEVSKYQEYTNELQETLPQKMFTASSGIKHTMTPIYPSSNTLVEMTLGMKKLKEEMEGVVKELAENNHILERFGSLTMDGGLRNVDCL
In words: TBK Biochemical Assay. The following applies: read-out: TBK1 IC50. A digest of the protocol:
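Caliper LabChip mobility-shift readout of substrate and product after 90 min of TBK1 reaction at 25° C and stop-buffer addition. Compounds tested in 1:4 serial dilution over 10 points from 30 uM final at 1% DMSO; staurosporine 10 uM final defines full inhibition.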

The subject of experiment [1] is phosphorylation of the IRF-3 protein in MDA-MB-468 cells. In words: pIRF3 immunocytochemistry cell based assay. As to conditions: Homo sapiens. A digest of the protocol: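 After 2 h stimulation with Poly(I:C) (10 ug/ml), following 1 h compound pre-treatment (10-point, 3-fold dilution, top 10 uM), MDA-MB-468 cells were fixed and stained with anti-pIRF3 antibody. pIRF3 fluorescence was normalized to PI staining or cell count on an Acumen cytometer. IC50 curves were derived from this.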

The target of a further experiment is T2, IKKε (Homo sapiens, UniProt Q14164).
T2 sequence (Q14164 1-716): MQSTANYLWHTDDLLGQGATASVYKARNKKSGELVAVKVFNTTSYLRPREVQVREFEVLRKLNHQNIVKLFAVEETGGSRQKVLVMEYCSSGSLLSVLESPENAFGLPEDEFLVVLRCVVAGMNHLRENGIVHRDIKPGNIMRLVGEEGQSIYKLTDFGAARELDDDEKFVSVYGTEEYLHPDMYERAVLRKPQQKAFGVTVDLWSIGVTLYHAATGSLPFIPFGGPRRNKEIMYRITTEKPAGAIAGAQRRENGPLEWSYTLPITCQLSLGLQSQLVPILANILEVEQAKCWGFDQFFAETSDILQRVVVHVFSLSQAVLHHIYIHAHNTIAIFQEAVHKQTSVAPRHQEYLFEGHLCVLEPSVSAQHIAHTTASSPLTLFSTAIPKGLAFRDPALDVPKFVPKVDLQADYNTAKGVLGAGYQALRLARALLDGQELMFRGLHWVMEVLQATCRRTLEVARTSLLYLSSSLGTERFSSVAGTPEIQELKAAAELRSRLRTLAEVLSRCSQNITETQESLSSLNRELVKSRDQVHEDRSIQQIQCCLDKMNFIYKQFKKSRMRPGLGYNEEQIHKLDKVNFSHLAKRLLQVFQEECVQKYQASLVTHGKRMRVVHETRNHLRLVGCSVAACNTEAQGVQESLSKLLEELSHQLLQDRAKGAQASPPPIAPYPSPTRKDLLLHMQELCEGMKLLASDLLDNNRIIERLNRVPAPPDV
The experiment in a line: IKKe Biochemical Assay. The following applies: read-out: IKKε IC50. The gist of the method:
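Activity was measured as mobility-shift separation of phosphorylated from unphosphorylated substrate on a LabChip EZ Reader. Compound was titrated from 30 uM final in 10 points, 1:4 steps, with 1% DMSO, and enzyme plus substrate reacted 90 min at 25° C before stop buffer. Control wells held 10 uM staurosporine.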

Setting [2] is: MDA-MB-468 cells, Poly(I:C) stimulation, read-out: pIRF3 IC50.

Each structure is given as a SMILES string. Structures can show the parent of a compound that is named as a salt. Where two headings read alike, the source gives them in different places. Some results are limits rather than exact numbers.

The IC50 is the concentration needed to halve the response being measured.

For `COc1cc(C(=O)N2CC3C2CCN3C)cnc1-c1cc2nccc(-c3ccc(OC4CCOCC4)c(C#N)c3)c2o1` (stereo not drawn) [Compound 405, 5-[2-[3-methoxy-5-([2-methyl-2,6-diazabicyclo[3.2.0]heptan-6-yl]carbonyl)pyridin-2-yl]furo[3,2-b]pyridin-7-yl]-2-(oxan-4-yloxy)benzonitrile hydrochloride], the values for the 50% inhibitory concentration (IC50) (on TBK1; in experiment [1] (setting [2]); at IKKε) were under 100 nM, 100 to 1000 nM and under 100 nM, respectively.
For `COc1cc(C(=O)N2CC3CCC2CN3C)cnc1-c1cc2nccc(-c3ccc(OC4CCOCC4)c(C#N)c3)c2o1` (stereo not drawn) [Compound 406, 5-[2-[3-methoxy-5-(([5-methyl-2,5-diazabicyclo[2.2.2]octan-2-yl]carbonyl)pyridin-2-yl]furo[3,2-b]pyridin-7-yl]-2-(oxan-4-yloxy)benzonitrile hydrochloride], the half-maximal inhibitory concentration (IC50) (at TBK1; in experiment [1] (setting [2]); at IKKε) was under 100 nM throughout.
As for `COc1cc(C(=O)N2CCCCN2)cnc1-c1cc2nccc(-c3ccc(OC4CCOCC4)c(C#N)c3)c2o1` [Compound 407, 5-(2-[5-[(1,2-diazinan-1-yl)carbonyl]-3-methoxypyridin-2-yl]furo[3,2-b]pyridin-7-yl)-2-(oxan-4-yloxy)benzonitrile hydrochloride], the half-maximal inhibitory concentration (IC50) is under 100 nM at TBK1, 100 to 1000 nM in experiment [1] (setting [2]) and under 100 nM at IKKε.
For `COc1cc(C(=O)N2CCCCN2C)cnc1-c1cc2nccc(-c3ccc(OC4CCOCC4)c(C#N)c3)c2o1` [Compound 408, 5-(2-[3-methoxy-5-[(2-methyl-1,2-diazinan-1-yl)carbonyl]pyridin-2-yl]furo[3,2-b]pyridin-7-yl)-2-(oxan-4-yloxy)benzonitrile], the IC50 is under 100 nM on TBK1; 100 to 1000 nM in experiment [1] (MDA-MB-468, read-out: pIRF3 IC50); under 100 nM on IKKε.
Consider `COc1cc(C(=O)N2CCCCC2)cnc1-c1cc2nccc(-c3ccc(N4CC[C@@H](F)C4)c(C#N)c3)c2o1` [Compound 410, 2-[(3R)-3-fluoropyrrolidin-1-yl]-5-(2-[3-methoxy-5-[(piperidin-1-yl)carbonyl]pyridin-2-yl]furo[3,2-b]pyridin-7-yl)benzonitrile], for which the 50% inhibitory concentration (IC50) at TBK1 was under 100 nM; in experiment [1] (setting [2]), 100 to 1000 nM; at IKKε it was under 100 nM.
In the case of `COc1cc(C(=O)N2CC3CCC(C2)O3)cnc1-c1cc2nccc(-c3ccc(OC4CCOCC4)c(C#N)c3)c2o1` [Compound 411, 5-[2-[3-methoxy-5-([8-oxa-3-azabicyclo[3.2.1]octan-3-yl]carbonyl)pyridin-2-yl]furo[3,2-b]pyridin-7-yl]-2-(oxan-4-yloxy)benzonitrile hydrochloride], the IC50 on TBK1 was under 100 nM; in experiment [1] (setting [2]) it was 100 to 1000 nM; at IKKε, under 100 nM.
For `COc1cc(C(=O)N2C3COCC2CC(O)C3)cnc1-c1cc2nccc(-c3ccc(OC4CCOCC4)c(C#N)c3)c2o1` (stereo not drawn) [Compound 412, 5-[2-[5-([7-hydroxy-3-oxa-9-azabicyclo[3.3.1]nonan-9-yl]carbonyl)-3-methoxypyridin-2-yl]furo[3,2-b]pyridin-7-yl]-2-(oxan-4-yloxy)benzonitrile], the IC50 (on TBK1; in experiment [1] (setting [2]); at IKKε) was under 100 nM each time.
`COc1cc(C(=O)N2CC3CCC2CO3)ncc1-c1cc2nccc(-c3ccc(OC4CCOCC4)c(C#N)c3)c2o1` (stereo not drawn) [Compound 413, 5-[2-[4-methoxy-6-([2-oxa-5-azabicyclo[2.2.2]octan-5-yl]carbonyl)pyridin-3-yl]furo[3,2-b]pyridin-7-yl]-2-(oxan-4-yloxy)benzonitrile hydrochloride]: the IC50 on TBK1 is under 100 nM; in experiment [1] (setting [2]) it was 100 to 1000 nM; on IKKε it was under 100 nM.
In the case of `COc1cc(C(=O)N2CC3CCC2CO3)cnc1-c1cc2nccc(-c3ccc(OC4CCOCC4)c(C#N)c3)c2o1` (stereo not drawn) [Compound 414, hydrochloride], the IC50 (on TBK1; in experiment [1] (setting [2]); at IKKε) was under 100 nM throughout.
